Calls of active or inactive are those of the source. The rule behind the calls is not given here.
Tests used:
[1] = target: Gastrin/cholecystokinin type B receptor (Homo sapiens) (UniProt P32239); assay: Cholecystokinin CCK2 (CCKB) Eurofins-Panlabs radioligand binding assay; settings: Compound concentration 10.0 uM
[2] = target: Ephrin type-A receptor 6 (Homo sapiens) (UniProt Q9UF33); assay: EPHA6 DiscoveRx kinase panel; settings: Compound concentration 1.0 uM
[3] = target: Dual specificity mitogen-activated protein kinase kinase 6 (Homo sapiens) (UniProt P52564); assay: MEK6 DiscoveRx kinase panel; settings: Compound concentration 1.0 uM
[4] = target: Serine/threonine-protein kinase/endoribonuclease IRE1 (Homo sapiens) (UniProt O75460); assay: ERN1 DiscoveRx kinase panel; settings: Compound concentration 1.0 uM
[5] = target: Serine/threonine-protein kinase D1 (Homo sapiens) (UniProt Q15139); assay: PRKD1 DiscoveRx kinase panel; settings: Compound concentration 1.0 uM
[6] = target: Calcium/calmodulin-dependent protein kinase type II subunit alpha (Homo sapiens) (UniProt Q9UQM7); assay: CAMK2A DiscoveRx kinase panel; settings: Compound concentration 1.0 uM
Chain of Calcium/calmodulin-dependent protein kinase type II subunit alpha (Homo sapiens) (Q9UQM7 whole entry): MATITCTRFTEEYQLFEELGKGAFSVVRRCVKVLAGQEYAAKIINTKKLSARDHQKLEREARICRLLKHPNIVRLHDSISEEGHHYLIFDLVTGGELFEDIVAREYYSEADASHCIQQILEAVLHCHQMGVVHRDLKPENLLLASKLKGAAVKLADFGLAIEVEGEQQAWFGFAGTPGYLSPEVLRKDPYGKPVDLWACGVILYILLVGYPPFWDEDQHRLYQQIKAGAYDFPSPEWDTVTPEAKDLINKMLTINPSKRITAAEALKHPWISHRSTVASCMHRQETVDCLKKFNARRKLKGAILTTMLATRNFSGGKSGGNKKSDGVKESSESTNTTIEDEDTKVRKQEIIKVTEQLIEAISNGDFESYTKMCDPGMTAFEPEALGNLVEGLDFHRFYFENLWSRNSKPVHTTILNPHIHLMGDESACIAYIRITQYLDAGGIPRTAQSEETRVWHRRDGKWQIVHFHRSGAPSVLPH

[7] = target: Serine/threonine-protein kinase Nek4 (Homo sapiens) (UniProt P51957); assay: NEK4 DiscoveRx kinase panel; settings: Compound concentration 1.0 uM
[8] = target: Homeodomain-interacting protein kinase 1 (Homo sapiens) (UniProt Q86Z02); assay: HIPK1 DiscoveRx kinase panel; settings: Compound concentration 1.0 uM
[9] = target: Non-receptor tyrosine-protein kinase TYK2 (Homo sapiens) (UniProt P29597); assay: TYK2(JH1domain-catalytic) DiscoveRx kinase panel; settings: Compound concentration 1.0 uM
[10] = target: Cyclin-dependent kinase-like 2 (Homo sapiens) (UniProt Q92772); assay: CDKL2 DiscoveRx kinase panel; settings: Compound concentration 1.0 uM
[11] = target: Cyclin-dependent kinase 11B (Homo sapiens) (UniProt P21127); assay: CDC2L1 DiscoveRx kinase panel; settings: Compound concentration 1.0 uM
[12] = target: Ribosomal protein S6 kinase alpha-1 (Homo sapiens) (UniProt Q15418); assay: RSK1(Kin.Dom.2-C-terminal) DiscoveRx kinase panel; settings: Compound concentration 1.0 uM
[13] = target: Mitogen-activated protein kinase kinase kinase 1 (Homo sapiens) (UniProt Q13233); assay: MAP3K1 DiscoveRx kinase panel; settings: Compound concentration 1.0 uM
[14] = target: MAO-A (Homo sapiens, UniProt P21397); assay: Inhibition of Monoamine Oxidase MAO-A at compound concentration of 10.0 uM in the Eurofins-Panlabs enzyme assay (Eurofins_assay_140010); design: substrate with concentration 50 uM Kynuramine, incubation time 60 min, incubation temperature 37 C; settings: human recombinant MAO-A expressed in insect Hi5 cells, probe Kynuramine (50 uM), compound concentration 10 uM
[15] = target: Myosin light chain kinase, smooth muscle (Homo sapiens) (UniProt Q15746); assay: MYLK DiscoveRx kinase panel; settings: Compound concentration 1.0 uM
[16] = target: Cyclin-dependent kinase 9 (Homo sapiens) (UniProt P50750); assay: CDK9 DiscoveRx kinase panel; settings: Compound concentration 1.0 uM
[17] = target: Platelet-derived growth factor receptor alpha (Homo sapiens) (UniProt P16234); assay: PDGFRA DiscoveRx kinase panel; settings: Compound concentration 1.0 uM
[18] = target: Adenosine receptor A2a (Homo sapiens) (UniProt P29274); settings: Compound concentration 10.0 uM
[19] = target: Tyrosine-protein kinase JAK1 (Homo sapiens) (UniProt P23458); assay: JAK1(JH2domain-pseudokinase) DiscoveRx kinase panel; settings: Compound concentration 1.0 uM
[20] = target: Serine/threonine-protein kinase Nek10 (Homo sapiens) (UniProt Q6ZWH5); assay: NEK10 DiscoveRx kinase panel; settings: Compound concentration 1.0 uM
Chain of Serine/threonine-protein kinase Nek10 (Homo sapiens) (Q6ZWH5 whole entry): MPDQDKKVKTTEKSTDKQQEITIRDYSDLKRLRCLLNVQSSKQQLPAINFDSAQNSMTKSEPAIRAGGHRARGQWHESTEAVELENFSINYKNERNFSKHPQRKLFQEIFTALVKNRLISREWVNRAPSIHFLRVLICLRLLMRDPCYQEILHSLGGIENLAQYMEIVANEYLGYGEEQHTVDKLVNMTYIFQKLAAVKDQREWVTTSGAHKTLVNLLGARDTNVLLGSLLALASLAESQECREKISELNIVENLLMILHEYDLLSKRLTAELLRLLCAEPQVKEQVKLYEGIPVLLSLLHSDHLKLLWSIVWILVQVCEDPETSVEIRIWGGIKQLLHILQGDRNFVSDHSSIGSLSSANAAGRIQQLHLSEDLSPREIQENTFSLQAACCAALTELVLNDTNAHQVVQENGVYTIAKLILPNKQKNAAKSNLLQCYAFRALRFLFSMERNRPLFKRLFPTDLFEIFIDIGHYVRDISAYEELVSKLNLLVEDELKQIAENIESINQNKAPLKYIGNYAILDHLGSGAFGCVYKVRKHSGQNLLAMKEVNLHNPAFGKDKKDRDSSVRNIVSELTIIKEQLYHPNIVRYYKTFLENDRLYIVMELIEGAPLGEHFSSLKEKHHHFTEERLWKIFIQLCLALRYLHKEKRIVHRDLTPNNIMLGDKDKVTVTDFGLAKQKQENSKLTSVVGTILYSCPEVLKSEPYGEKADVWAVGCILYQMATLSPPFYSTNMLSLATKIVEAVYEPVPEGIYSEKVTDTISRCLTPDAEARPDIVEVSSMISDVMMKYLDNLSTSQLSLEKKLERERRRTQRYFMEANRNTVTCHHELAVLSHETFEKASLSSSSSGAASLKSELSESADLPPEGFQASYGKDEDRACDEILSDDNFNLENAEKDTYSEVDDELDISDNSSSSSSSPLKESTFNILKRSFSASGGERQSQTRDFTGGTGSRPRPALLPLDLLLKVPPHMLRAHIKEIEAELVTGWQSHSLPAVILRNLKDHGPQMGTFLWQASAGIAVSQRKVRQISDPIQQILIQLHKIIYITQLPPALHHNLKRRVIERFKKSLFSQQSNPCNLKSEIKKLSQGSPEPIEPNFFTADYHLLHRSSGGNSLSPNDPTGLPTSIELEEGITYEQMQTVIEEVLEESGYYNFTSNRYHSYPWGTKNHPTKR

[21] = system: MDA-MB-453; assay: MDA-MB-453 cell line Proliferation assay; assay type: functional, Homo sapiens; settings: time 4 day
[22] = HeLa-MaTu-ADR cell line Proliferation assay; assay type: functional, Homo sapiens; settings: time 4 day
[23] = target: Eukaryotic translation initiation factor 2-alpha kinase 1 (Homo sapiens) (UniProt Q9BQI3); assay: EIF2AK1 DiscoveRx kinase panel; settings: Compound concentration 1.0 uM
[24] = target: Type-1 angiotensin II receptor (Homo sapiens) (UniProt P30556); assay: Angiotensin AT1 Eurofins-Panlabs radioligand binding assay; settings: Compound concentration 10.0 uM
[25] = target: Serine/threonine-protein kinase 4 (Homo sapiens) (UniProt Q13043); assay: MST1 DiscoveRx kinase panel; settings: Compound concentration 1.0 uM
[26] = target: Phosphodiesterase 3 (Homo sapiens) (UniProt Q14432+Q13370); assay: Inhibition of Phosphodiesterase PDE3 at compound concentration of 10.0 uM in the Eurofins-Panlabs enzyme assay (Eurofins_assay_152000); assay type: protein assay; design: substrate with concentration 1.01 uM [3H] cAMP + cAMP, incubation time 20 min, incubation temperature 25 C; settings: Compound concentration 10.0 uM
[27] = target: Mitogen-activated protein kinase kinase kinase 4 (Homo sapiens) (UniProt Q9Y6R4); assay: MAP3K4 DiscoveRx kinase panel; settings: Compound concentration 1.0 uM
[28] = target: Serine/threonine-protein kinase DCLK1 (Homo sapiens) (UniProt O15075); assay: DCAMKL1 DiscoveRx kinase panel; settings: Compound concentration 1.0 uM
[29] = target: Epithelial discoidin domain-containing receptor 1 (Homo sapiens, UniProt Q08345); assay: DDR1 DiscoveRx kinase panel
Chain of Epithelial discoidin domain-containing receptor 1 (Q08345 whole entry, the tested form may be a part): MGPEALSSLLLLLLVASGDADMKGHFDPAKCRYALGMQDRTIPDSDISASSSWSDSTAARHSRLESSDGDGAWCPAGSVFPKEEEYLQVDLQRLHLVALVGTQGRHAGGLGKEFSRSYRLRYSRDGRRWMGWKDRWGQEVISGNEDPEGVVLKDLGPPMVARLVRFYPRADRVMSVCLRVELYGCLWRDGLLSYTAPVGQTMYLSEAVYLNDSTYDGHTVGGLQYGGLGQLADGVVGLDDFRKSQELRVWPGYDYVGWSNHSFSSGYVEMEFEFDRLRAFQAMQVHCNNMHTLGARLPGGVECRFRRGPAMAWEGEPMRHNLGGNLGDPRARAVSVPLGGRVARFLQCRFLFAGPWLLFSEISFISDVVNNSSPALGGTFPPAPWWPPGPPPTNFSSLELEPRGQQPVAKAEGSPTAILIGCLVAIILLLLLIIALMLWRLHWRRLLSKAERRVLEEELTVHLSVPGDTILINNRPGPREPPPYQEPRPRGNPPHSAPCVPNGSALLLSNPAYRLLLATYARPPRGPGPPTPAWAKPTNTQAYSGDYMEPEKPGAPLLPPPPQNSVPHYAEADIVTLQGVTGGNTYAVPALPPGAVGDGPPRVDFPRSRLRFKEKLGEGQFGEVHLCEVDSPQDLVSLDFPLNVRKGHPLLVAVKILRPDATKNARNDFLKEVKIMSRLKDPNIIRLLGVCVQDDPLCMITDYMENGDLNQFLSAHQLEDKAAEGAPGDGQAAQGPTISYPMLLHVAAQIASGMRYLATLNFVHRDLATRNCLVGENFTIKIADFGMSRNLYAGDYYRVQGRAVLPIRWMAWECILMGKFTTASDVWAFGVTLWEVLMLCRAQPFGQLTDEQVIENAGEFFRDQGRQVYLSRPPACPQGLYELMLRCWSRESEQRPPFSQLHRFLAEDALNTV

[30] = target: Mitotic checkpoint serine/threonine-protein kinase BUB1 (Homo sapiens, UniProt O43683); assay: BUB1 biochemical assay (low ATP)
[31] = target: Calcium/calmodulin-dependent protein kinase type II subunit beta (Homo sapiens) (UniProt Q13554); assay: CAMK2B DiscoveRx kinase panel; settings: Compound concentration 1.0 uM
[32] = target: Phosphatidylinositol 4,5-bisphosphate 3-kinase catalytic subunit gamma isoform (Homo sapiens) (UniProt P48736); assay: PIK3CG DiscoveRx kinase panel; settings: Compound concentration 1.0 uM
[33] = target: Tyrosine-protein kinase ABL1 (Homo sapiens) (UniProt P00519); assay: ABL1-nonphosphorylated DiscoveRx kinase panel; settings: Compound concentration 1.0 uM
Chain of Tyrosine-protein kinase ABL1 (Homo sapiens) (P00519 whole entry): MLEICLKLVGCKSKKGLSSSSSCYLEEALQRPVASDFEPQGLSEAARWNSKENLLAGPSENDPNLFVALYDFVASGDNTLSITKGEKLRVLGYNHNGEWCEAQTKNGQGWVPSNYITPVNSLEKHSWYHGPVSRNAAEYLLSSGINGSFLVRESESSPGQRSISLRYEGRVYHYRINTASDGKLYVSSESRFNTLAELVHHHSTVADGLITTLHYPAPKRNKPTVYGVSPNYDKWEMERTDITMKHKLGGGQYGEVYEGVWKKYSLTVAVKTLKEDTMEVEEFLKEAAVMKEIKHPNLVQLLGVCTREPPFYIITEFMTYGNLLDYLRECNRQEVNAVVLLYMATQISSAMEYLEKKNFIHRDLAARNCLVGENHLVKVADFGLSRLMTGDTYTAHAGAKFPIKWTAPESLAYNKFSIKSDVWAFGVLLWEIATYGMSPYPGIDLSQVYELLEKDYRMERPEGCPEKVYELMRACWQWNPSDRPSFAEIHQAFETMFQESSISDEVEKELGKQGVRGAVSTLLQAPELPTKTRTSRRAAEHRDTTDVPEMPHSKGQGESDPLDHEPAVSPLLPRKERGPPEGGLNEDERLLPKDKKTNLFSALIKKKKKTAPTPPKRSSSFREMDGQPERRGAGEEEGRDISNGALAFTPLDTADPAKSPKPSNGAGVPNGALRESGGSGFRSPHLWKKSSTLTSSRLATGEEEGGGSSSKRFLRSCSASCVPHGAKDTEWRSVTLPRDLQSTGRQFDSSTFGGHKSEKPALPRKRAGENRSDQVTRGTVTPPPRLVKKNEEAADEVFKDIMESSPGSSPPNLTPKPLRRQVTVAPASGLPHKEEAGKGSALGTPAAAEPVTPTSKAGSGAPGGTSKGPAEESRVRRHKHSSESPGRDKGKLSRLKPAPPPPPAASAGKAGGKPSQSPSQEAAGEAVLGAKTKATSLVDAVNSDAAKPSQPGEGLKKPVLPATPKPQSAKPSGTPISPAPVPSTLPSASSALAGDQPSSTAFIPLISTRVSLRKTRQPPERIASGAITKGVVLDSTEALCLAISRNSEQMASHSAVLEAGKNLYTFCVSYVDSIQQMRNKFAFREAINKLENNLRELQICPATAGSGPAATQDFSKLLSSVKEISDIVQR

[34] = target: Prostaglandin G/H synthase 2 (Homo sapiens) (UniProt P35354); assay: Cyclooxygenase COX-2 Eurofins-Panlabs enzyme assay; design: substrate with concentration; settings: Compound concentration 10.0 uM
[35] = target: Ephrin type-A receptor 7 (Homo sapiens) (UniProt Q15375); assay: EPHA7 DiscoveRx kinase panel; settings: Compound concentration 1.0 uM
[36] = target: SNF-related serine/threonine-protein kinase (Homo sapiens) (UniProt Q9NRH2); assay: SNRK DiscoveRx kinase panel; settings: Compound concentration 1.0 uM
Chain of SNF-related serine/threonine-protein kinase (Homo sapiens) (Q9NRH2 whole entry, canonical isoform): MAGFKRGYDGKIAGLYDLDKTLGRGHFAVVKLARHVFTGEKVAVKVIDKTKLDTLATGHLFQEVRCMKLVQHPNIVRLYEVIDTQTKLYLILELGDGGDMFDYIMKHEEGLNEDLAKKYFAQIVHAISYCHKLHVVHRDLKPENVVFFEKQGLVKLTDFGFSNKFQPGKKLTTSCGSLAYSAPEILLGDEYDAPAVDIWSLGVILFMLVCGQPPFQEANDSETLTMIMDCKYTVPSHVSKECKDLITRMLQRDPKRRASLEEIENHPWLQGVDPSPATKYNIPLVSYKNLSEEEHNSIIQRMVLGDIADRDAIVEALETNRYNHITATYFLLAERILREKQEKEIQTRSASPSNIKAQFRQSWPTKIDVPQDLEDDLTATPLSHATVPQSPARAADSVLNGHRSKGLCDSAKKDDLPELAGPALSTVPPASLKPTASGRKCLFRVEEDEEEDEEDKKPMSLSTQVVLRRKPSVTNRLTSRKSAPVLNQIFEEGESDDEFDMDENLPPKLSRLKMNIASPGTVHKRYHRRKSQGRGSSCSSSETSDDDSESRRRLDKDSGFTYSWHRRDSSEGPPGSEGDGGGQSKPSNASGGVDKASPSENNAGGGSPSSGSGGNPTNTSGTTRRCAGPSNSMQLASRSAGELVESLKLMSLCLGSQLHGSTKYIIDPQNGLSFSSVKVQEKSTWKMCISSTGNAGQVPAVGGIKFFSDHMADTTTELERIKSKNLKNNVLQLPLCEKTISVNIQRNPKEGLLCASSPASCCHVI

[37] = target: Casein kinase I isoform gamma-3 (Homo sapiens) (UniProt Q9Y6M4); assay: CSNK1G3 DiscoveRx kinase panel; settings: Compound concentration 1.0 uM
[38] = target: Dual specificity protein kinase CLK3 (Homo sapiens) (UniProt P49761); assay: CLK3 DiscoveRx kinase panel; settings: Compound concentration 1.0 uM
[39] = target: Vascular endothelial growth factor receptor 3 (Homo sapiens) (UniProt P35916); assay: FLT4 DiscoveRx kinase panel; settings: Compound concentration 1.0 uM
[40] = target: Tyrosine-protein kinase TXK (Homo sapiens) (UniProt P42681); assay: TXK DiscoveRx kinase panel; settings: Compound concentration 1.0 uM
[41] = target: Serine/threonine-protein kinase Nek7 (Homo sapiens) (UniProt Q8TDX7); assay: NEK7 DiscoveRx kinase panel; settings: Compound concentration 1.0 uM
Chain of Serine/threonine-protein kinase Nek7 (Homo sapiens) (Q8TDX7 whole entry, looked up): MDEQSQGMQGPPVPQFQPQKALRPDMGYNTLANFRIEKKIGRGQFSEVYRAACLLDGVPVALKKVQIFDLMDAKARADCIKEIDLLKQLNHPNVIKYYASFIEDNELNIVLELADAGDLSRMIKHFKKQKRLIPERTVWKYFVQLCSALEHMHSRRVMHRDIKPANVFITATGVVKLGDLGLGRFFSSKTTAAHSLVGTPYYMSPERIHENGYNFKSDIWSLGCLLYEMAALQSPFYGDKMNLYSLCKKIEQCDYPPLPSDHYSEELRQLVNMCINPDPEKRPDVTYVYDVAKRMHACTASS

[42] = PHKG2 DiscoveRx kinase panel; settings: Homo sapiens; Compound concentration 1.0 uM
[43] = target: Phosphatidylinositol 4,5-bisphosphate 3-kinase catalytic subunit beta isoform (Homo sapiens) (UniProt P42338); assay: PIK3CB DiscoveRx kinase panel; settings: Compound concentration 1.0 uM
[44] = target: Serine/threonine-protein kinase RIO3 (Homo sapiens) (UniProt O14730); assay: RIOK3 DiscoveRx kinase panel; settings: Compound concentration 1.0 uM
[45] = target: Interferon-induced, double-stranded RNA-activated protein kinase (Homo sapiens) (UniProt P19525); assay: PRKR DiscoveRx kinase panel; settings: Compound concentration 1.0 uM
[46] = target: 5-hydroxytryptamine receptor 1B (Homo sapiens) (UniProt P28222); assay: Serotonin (5-Hydroxytryptamine) 5-HT1B Eurofins-Panlabs radioligand binding assay; design: ligand concentration 1 nM; settings: Compound concentration 10.0 uM
[47] = target: Dual specificity mitogen-activated protein kinase kinase 3 (Homo sapiens) (UniProt P46734); assay: MEK3 DiscoveRx kinase panel; settings: Compound concentration 1.0 uM

## COc1cnccc1Nc1nc(-c2nn(Cc3c(F)cc(OCCO)cc3F)c3ccccc23)ncc1OC
[1]
  inhibition: 1%
[2]
  residual activity: 89%
[3]
  residual activity: 89%
[4]
  residual activity: 100%
[5]
  residual activity: 100%
[6]
  residual activity: 58%
[7]
  residual activity: 99%
[8]
  residual activity: 94%
[9]
  residual activity: 100%
[10]
  residual activity: 90%
[11]
  residual activity: 91%
[12]
  residual activity: 100%
[13]
  residual activity: 92%
[14]
  inhibition at 60 min, 10 µM: 7% (not active)
[15]
  residual activity: 100%
[16]
  residual activity: 99%
[17]
  residual activity: 100%
[18]
  inhibition: 67%
[19]
  residual activity: 100%
[20]
  residual activity: 100%
[21]
  Cell Proliferation IC50: 1200 nM
[22]
  Cell Proliferation IC50: 1100 nM
[23]
  residual activity: 87%
[24]
  inhibition: -2%
[25]
  residual activity: 100%
[26]
  inhibition: 4%
[27]
  residual activity: 80%
[28]
  residual activity: 100%
[29]
  Kd: 2300 nM
[29]; Compound concentration 1.0 uM
  residual activity: 21%
[30]
  IC50: 6.5 nM (active)
[31]
  residual activity: 100%
[32]
  residual activity: 80%
[33]
  residual activity: 87%
[34]
  inhibition: -9%
[35]
  residual activity: 98%
[36]
  residual activity: 96%
[37]
  residual activity: 100%
[38]
  residual activity: 100%
[39]
  residual activity: 82%
[40]
  residual activity: 64%
[41]
  residual activity: 78%
[42]
  residual activity: 98%
[43]
  residual activity: 97%
[44]
  residual activity: 90%
[45]
  residual activity: 88%
[46]
  inhibition: 15%
[47]
  residual activity: 100%

From ChEMBL document CHEMBL5058649, “Data for DCP probe BAY 1816032” (2022)
